Positions of bridges follow the written chain, without caps; N, C: chain ends. Non-standard residues stand in square brackets, D forms with d. Residues, ends and D or L forms follow the SMILES beside them. Bip(4'-COOH) = N[C@@H](Cc1ccc(-c2ccc(C(=O)O)cc2)cc1)C(=O)O; Bip(4'-NHAc) = CC(=O)Nc1ccc(-c2ccc(C[C@H](N)C(=O)O)cc2)cc1; Ala(morpholin-4-yl) = N[C@@H](CN1CCOCC1)C(=O)O; Phe(3-CONH2) = NC(=O)c1cccc(C[C@H](N)C(=O)O)c1; Bip = N[C@@H](Cc1ccc(-c2ccccc2)cc1)C(=O)O; Phe(2-Me) = Cc1ccccc1C[C@H](N)C(=O)O; 2Pal = N[C@@H](Cc1ccccn1)C(=O)O; Chg = N[C@H](C(=O)O)C1CCCCC1; Sar = CNCC(=O)O

The term IC50 denotes the concentration needed to halve the response being measured.

For this experiment, the target named is TNFα (Homo sapiens, UniProt P01375). Description: TNF-Induced HEK-Blue Assay. The format is cell-based. The conditions noted are these: HEK-Blue-CD40L cells, NF-kB-driven secreted alkaline phosphatase reporter; TNFα 0.5 ng/ml; 18 h; read-out: TNF induced HEK-Blue assay IC50 value.
Chain of TNFα (P01375 77-233 limits assumed): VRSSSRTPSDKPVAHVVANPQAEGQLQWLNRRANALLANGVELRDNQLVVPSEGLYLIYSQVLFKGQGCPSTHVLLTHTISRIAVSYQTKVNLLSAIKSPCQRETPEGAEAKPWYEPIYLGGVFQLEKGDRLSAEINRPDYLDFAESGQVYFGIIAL
Regarding `CC(=O)Nc1ccc(-c2ccc(C[C@@H]3NC(=O)[C@H](Cc4ccc(-c5ccccc5)cc4)NC(=O)[C@H](Cc4c[nH]c5ccccc45)NC(=O)CSC[C@@H](C(=O)NCC(N)=O)NC(=O)[C@H](CC(C)C)NC(=O)[C@H](Cc4ccc(O)cc4)NC(=O)[C@H](C(C)C)NC(=O)[C@@H]4CCCN4C(=O)[C@H](C(C)C)NC(=O)[C@@H](CCCNC(=N)N)NC(=O)[C@H](CC(=O)O)NC(=O)[C@H](Cc4ccccn4)NC(=O)CN(C)C3=O)cc2)cc1` [Example 197] ({CH2CO}-W[Bip][Bip(4'-NHAc)][Sar][2Pal]D[dR]VPVYLCG-NH2; thioether N-13), the IC50 was in the range of 50 to 200 nM. Under `CC(=O)Nc1ccc(-c2ccc(C[C@@H]3NC(=O)[C@H](Cc4ccc(-c5ccc(C(=O)O)cc5)cc4)NC(=O)[C@H](CN4CCOCC4)NC(=O)CSC[C@@H](C(=O)NCC(N)=O)NC(=O)[C@H](CC(C)C)NC(=O)[C@H](CCCNC(=N)N)NC(=O)[C@H](C)NC(=O)[C@@H]4CCCN4C(=O)[C@H](C(C)C)NC(=O)[C@@H](CCCNC(=N)N)NC(=O)[C@H](CC(=O)O)NC(=O)[C@@H]4CCCN4C(=O)CN(C)C3=O)cc2)cc1` [Example 198] ({CH2CO}-[Ala(morpholin-4-yl)][Bip(4'-COOH)][Bip(4'-NHAc)][Sar]PD[dR]VPARLCG-NH2; thioether N-13) stands < 50 nM; under `CC(=O)Nc1ccc(-c2ccc(C[C@@H]3NC(=O)[C@H](Cc4ccc(-c5ccc(C(=O)O)cc5)cc4)NC(=O)[C@H](CN4CCOCC4)NC(=O)CSC[C@@H](C(=O)NCC(N)=O)NC(=O)[C@H](CC(C)C)NC(=O)[C@H](Cc4ccccc4C)NC(=O)[C@H](C(C)C)NC(=O)[C@@H]4CCCN4C(=O)[C@H](C(C)C)NC(=O)[C@@H](CCCNC(=N)N)NC(=O)[C@H](CC(=O)O)NC(=O)[C@H](Cc4ccccn4)NC(=O)CN(C)C3=O)cc2)cc1` [Example 199] ({CH2CO}-[Ala(morpholin-4-yl)][Bip(4'-COOH)][Bip(4'-NHAc)][Sar][2Pal]D[dR]VPV[Phe(2-Me)]LCG-NH2; thioether N-13), < 50 nM; under `CC(=O)Nc1ccc(-c2ccc(C[C@@H]3NC(=O)[C@H](Cc4ccc(-c5ccc(C(=O)O)cc5)cc4)NC(=O)[C@H](CN4CCOCC4)NC(=O)CSC[C@@H](C(=O)NCC(N)=O)NC(=O)[C@H](CC(C)C)NC(=O)[C@H](Cc4cccc(C(N)=O)c4)NC(=O)[C@H](C(C)C)NC(=O)[C@@H]4CCCN4C(=O)[C@H](C(C)C)NC(=O)[C@@H](CCCNC(=N)N)NC(=O)[C@H](CC(=O)O)NC(=O)[C@H](Cc4ccccn4)NC(=O)CN(C)C3=O)cc2)cc1` [Example 200] ({CH2CO}-[Ala(morpholin-4-yl)][Bip(4'-COOH)][Bip(4'-NHAc)][Sar][2Pal]D[dR]VPV[Phe(3-CONH2)]LCG-NH2; thioether N-13), 50 to 200 nM. In the case of `CC(=O)Nc1ccc(-c2ccc(C[C@@H]3NC(=O)[C@H](Cc4ccc(-c5ccccc5)cc4)NC(=O)[C@H](CN4CCOCC4)NC(=O)CSC[C@@H](C(=O)NCC(N)=O)NC(=O)[C@H](CC(C)C)NC(=O)[C@H](CCCNC(=N)N)NC(=O)[C@H](C4CCCCC4)NC(=O)[C@@H]4CCCN4C(=O)[C@H](C(C)C)NC(=O)[C@@H](CCCNC(=N)N)NC(=O)[C@H](CC(=O)O)NC(=O)[C@H](Cc4ccccn4)NC(=O)CN(C)C3=O)cc2)cc1` [Example 201] ({CH2CO}-[Ala(morpholin-4-yl)][Bip][Bip(4'-NHAc)][Sar][2Pal]D[dR]VP[Chg]RLCG-NH2; thioether N-13) it was < 50 nM. Consider `CC(C)C[C@@H]1NC(=O)[C@H](CCCNC(=N)N)NC(=O)[C@H](C(C)C)NC(=O)[C@@H]2CCCN2C(=O)[C@H](C(C)C)NC(=O)[C@@H](CCCNC(=N)N)NC(=O)[C@H](CC(=O)O)NC(=O)[C@@H]2CCCN2C(=O)CN(C)C(=O)[C@H](Cc2ccc(-c3ccccc3)cc2)NC(=O)[C@H](Cc2ccc(-c3ccccc3)cc2)NC(=O)[C@H](CN2CCOCC2)NC(=O)CSC[C@@H](C(=O)NCC(N)=O)NC1=O` [Example 202] ({CH2CO}-[Ala(morpholin-4-yl)][Bip][Bip][Sar]PD[dR]VPVRLCG-NH2; thioether N-13), for which the IC50 lay in the range of 200 to 2000 nM.
